Tests used:
Type in all cases: cell-based, human
[1] = system: β-catenin; experiment: Western blot of β-catenin; details: G361, SK-MEL-2 cells pre-treated 3 hours with GSK3β inhibitor, then 20 μM 1-benzyl I3C 24 hours
Description: The western blots employed the following primary antibodies: mouse anti-MITF-M (Thermo-scientific), mouse anti-HSP 90 (BD Biosciences), mouse anti-CDK2, rabbit anti-CDK4, rabbit anti-CDK-6, mouse anti-rabbit BRAF, goat anti-LEF-1, rabbit anti-AXIN, mouse anti-BCL2, (Santa Cruz), rabbit anti-P21, mouse anti-Cyclin D1, rabbit anti-MEK-p, rabbit anti-MEK1/2, rabbit anti-GSK3β rabbit anti-LRP6, rabbit anti-LRP6-phospho (Cell signaling), mouse anti-β-catenin (Invitrogen).

[2] = system: MITF-M; experiment: MITF-M protein levels in cultured melanoma cells (western blot, immunofluorescence); details: for MITF-M protein levels (western blot): G-361 cells, 48 hours, 200 μM I3C, 10 μM Vemurafenib or 10 μM U0126
Description: (§1) Western Blot analyses of samples electrophoretically fractionated on 12% acrylamide gels were carried out as previously described (Wagle et al., J. Clin. Oncol. 2011. 29(22):3085-3096; Nguyen et al., Chem. Biol. Interact. 2010. 186(3):255-266). Enhanced chemiluminescence (ECL) Lightening reagents were used to visualize the primary antibody bound protein bands in nitrocellulose membranes and the results captured on ECL Autoradiography Film (GE Healthcare, Piscataway, N.J.). The western blots employed the following primary antibodies: mouse anti-MITF-M (Thermo-scientific), mouse anti-HSP 90 (BD Biosciences), mouse anti-CDK2, rabbit anti-CDK4, rabbit anti-CDK-6, mouse anti-rabbit BRAF, goat anti-LEF-1, rabbit anti-AXIN, mouse anti-BCL2, (Santa Cruz), rabbit anti-P21, mouse anti-Cyclin D1, rabbit anti-MEK-p, rabbit anti-MEK1/2, rabbit anti-GSK3β rabbit anti-LRP6, rabbit anti-LRP6-phospho (Cell signaling), mouse anti-β-catenin (Invitrogen).

[3] = system: phosphorylated Erk/MAPK; experiment: Western blot of phosphorylated Erk/MAPK; details: G-361 cells, 48 hours; 200 μM I3C, 10 μM Vemurafenib or 10 μM U0126
Description: (§2) Western Blot analyses of samples electrophoretically fractionated on 12% acrylamide gels were carried out as previously described (Wagle et al., J. Clin. Oncol. 2011. 29(22):3085-3096; Nguyen et al., Chem. Biol. Interact. 2010. 186(3):255-266). […] The western blots employed the following primary antibodies: mouse anti-MITF-M (Thermo-scientific), mouse anti-HSP 90 (BD Biosciences), mouse anti-CDK2, rabbit anti-CDK4, rabbit anti-CDK-6, mouse anti-rabbit BRAF, goat anti-LEF-1, rabbit anti-AXIN, mouse anti-BCL2, (Santa Cruz), rabbit anti-P21, mouse anti-Cyclin D1, rabbit anti-MEK-p, rabbit anti-MEK1/2, rabbit anti-GSK3β rabbit anti-LRP6, rabbit anti-LRP6-phospho (Cell signaling), mouse anti-β-catenin (Invitrogen).

[4] = system: CDK4; experiment: Western blot of CDK4; details: G-361 cells, 48 hours; 200 μM I3C, 10 μM Vemurafenib or 10 μM U0126
Description: as §1

[5] = system: phosphorylated MEK; experiment: Western blot of phosphorylated MEK; details: G361 and DM738 cells, 10 μM Vemurafenib, 24 hours
Description: as §2

[6] = system: SK-MEL-2 cells; experiment: CCK-8 proliferation assay, SK-MEL-2; details: 48 hours
Description: […] Cells were treated with 20 μM 1-benzyl I3C every 24 hours for 72 hours and harvested at 24, 48 and 72 hours for western blot and flow cytometric analysis. Cells were treated with 20 μM LiCl or 10 μM BIO for 48 hours before harvesting them for western blots.
Subsequently inhibition of proliferation was assessed using Cell counting Kit-8 (Dojindo) as per the protocol in the user's manual. Briefly, 50 μl of the CCK-8 solution was added to each well along with 450 μl media and incubated for 2-3 hours. The absorbance was read at 450 nm and % inhibition was calculated for each condition standardizing DMSO to zero using the formula: [(100−Value of treatment/Value of DMSO treated control)×100]

Molecule	rescue of 1-benzyl I3C induced downregulation of β-catenin, MITF-M, CDK2, BCl2 [1]	MITF-M protein levels (western blot) [2]	phosphorylated Erk/MAPK levels [3]	CDK4 protein levels [4]	MEK-P levels [5]	antiproliferation in wild-type BRAF cells [6]	sensitivity of MITF-M inhibition to Vemurafenib ([2]; SK-MEL-2 cells (wild-type BRAF), 10 μM Vemurafenib, 24 hours)
O=C1Nc2cc(Br)ccc2/C1=C1/Nc2ccccc2/C1=N\O [BIO, 6-bromoindirubin-3′-oxime]	significant rescue	–	–	–	–	–	–
[Cl-].[Li+] [LiCl, Lithium Chloride]	significant rescue	–	–	–	–	–	–
N#CC(=C(/N)Sc1ccccc1N)/C(C#N)=C(\N)Sc1ccccc1N [U0126, reference compound]	–	down regulated	down regulated	down regulated	–	–	–
Vemurafenib [reference compound]	–	down regulated	down regulated	down regulated	downregulated MEK-P	ineffective	not sensitive to Vemurafenib action

Source: patent US20180369195A1, “COMBINATION THERAPY FOR TREATMENT OF MELANOMA” (The Regents of the University of California, priority 2015, published 2018)
